From ChEMBL document CHEMBL3997785, “Optimization of 2-Anilino 4-Amino Substituted Quinazolines into Potent Antimalarial Agents with Oral in Vivo Activity” (J Med Chem, 2017)
Calls of active or inactive are those of the source. The calls are words filed in the database; no cut-off is given here.

System: not listed separately
Assay: Hepatic extraction ratio in mouse liver microsomes at 1 uM in presence of NADPH by LC-MS method
Type: ADME, microsome
Conditions: read-out: ERH

Structure (SMILES)	hepatic extraction ratio at 1 µM
CN1CCN(CCNc2nc(Nc3ccc(F)c(Cl)c3)nc3ccccc23)CC1.Cl.Cl	0.55

System: Liver
Assay: Drug metabolism in mouse liver microsomes assessed as hydro defluorination at 1 uM after 60 mins in presence of NADPH by LC-MS method
Type: ADME, microsome
Conditions: 1 h

Structure (SMILES)	Drug metabolism
CN1CCN(CCNc2nc(Nc3ccc(F)c(Cl)c3)nc3ccccc23)CC1.Cl.Cl	Metabolite_Detected

System: Plasmodium falciparum
Assay: Antimalarial activity against Plasmodium falciparum NF54 harboring pfs16-LUC-GFP late stage 4 to 5 gametocytes after 48 hrs by MitoTracker Red staining based confocal microscopy
Type: functional
Conditions: NF54, 48 h

Structure (SMILES)	EC50 [nM]
CN1CCN(CCNc2nc(Nc3ccc(F)c(Cl)c3)nc3ccccc23)CC1.Cl.Cl	3000

System: Liver
Assay: Drug metabolism in mouse liver microsomes assessed as N-demethylation of methyl piperidine or piperazine at 1 uM after 60 mins in presence of NADPH by LC-MS method
Type: ADME, microsome
Conditions: 1 h

Structure (SMILES)	Drug metabolism
CN1CCN(CCNc2nc(Nc3ccc(F)c(Cl)c3)nc3ccccc23)CC1.Cl.Cl	Metabolite_Detected

System: not listed separately
Assay: Intrinsic clearance in human liver microsomes at 1 uM in presence of NADPH by LC-MS method
Type: ADME, microsome
Conditions: read-out: CLH

Structure (SMILES)	microsomal CLint at 1 µM [µL/min/mg]
CN1CCN(CCNc2nc(Nc3ccc(F)c(Cl)c3)nc3ccccc23)CC1.Cl.Cl	< 7

System: not listed separately
Assay: Ratio of EC50 for Plasmodium falciparum NF54-pfs16-LUC-GFP ring stage gametocytes to EC50 for Plasmodium falciparum 3D7 asexual blood stage infected in human erythrocytes
Type: functional
Conditions: not given

Structure (SMILES)	Ratio EC50
CN1CCN(CCNc2nc(Nc3ccc(F)c(Cl)c3)nc3ccccc23)CC1.Cl.Cl	10

System: Plasmodium falciparum
Assay: Antimalarial activity against Plasmodium falciparum 3D7 infected in human erythrocytes assessed as arrest at trophozoite stage of asexual life cycle leading to parasite death at 10 times EC50 up to 48 hrs by Giemsa-staining based assay relative to control
Type: functional, cell-based
Conditions: not given

Structure (SMILES)	Activity
CN1CCN(CCNc2nc(Nc3ccc(F)c(Cl)c3)nc3ccccc23)CC1.Cl.Cl	inactive

System: Plasmodium falciparum
Assay: Antimalarial activity against Plasmodium falciparum 3D7 asexual blood stage infected in human erythrocytes incubated for 72 hrs by LDH assay
Type: functional, cell-based
Conditions: 3D7, 72 h

Structure (SMILES)	EC50 [nM]
CN1CCN(CCNc2nc(Nc3ccc(F)c(Cl)c3)nc3ccccc23)CC1.Cl.Cl	26

System: Liver
Assay: Drug metabolism in human liver microsomes assessed as mono-oxygenation at 6th position of quinazoline at 1 uM after 60 mins in presence of NADPH by LC-MS method
Type: ADME, microsome
Conditions: 1 h

Structure (SMILES)	Drug metabolism
CN1CCN(CCNc2nc(Nc3ccc(F)c(Cl)c3)nc3ccccc23)CC1.Cl.Cl	Metabolite_Detected

System: Liver
Assay: Drug metabolism in mouse liver microsomes assessed as mono-oxygenation at 6th position of quinazoline at 1 uM after 60 mins in presence of NADPH by LC-MS method
Type: ADME, microsome
Conditions: 1 h

Structure (SMILES)	Drug metabolism
CN1CCN(CCNc2nc(Nc3ccc(F)c(Cl)c3)nc3ccccc23)CC1.Cl.Cl	Metabolite_Detected

System: Liver
Assay: Drug metabolism in human liver microsomes assessed as N-demethylation of methyl piperidine or piperazine at 1 uM after 60 mins in presence of NADPH by LC-MS method
Type: ADME, microsome
Conditions: 1 h

Structure (SMILES)	Drug metabolism
CN1CCN(CCNc2nc(Nc3ccc(F)c(Cl)c3)nc3ccccc23)CC1.Cl.Cl	Metabolite_Detected

System: Plasmodium falciparum
Assay: Antimalarial activity against synchronous culture of Plasmodium falciparum 3D7 infected in human erythrocytes assessed as development arrest at ring stage of asexual life cycle leading to parasite death at 10 times EC50 up to 48 hrs by Giemsa-staining based assay relative to control
Type: functional, cell-based
Conditions: not given

Structure (SMILES)	Activity
CN1CCN(CCNc2nc(Nc3ccc(F)c(Cl)c3)nc3ccccc23)CC1.Cl.Cl	Active

System: not listed separately
Assay: Half life in mouse liver microsomes at 1 uM in presence of NADPH by LC-MS method
Type: ADME, microsome
Conditions: not given

Structure (SMILES)	half-life at 1 µM [min]
CN1CCN(CCNc2nc(Nc3ccc(F)c(Cl)c3)nc3ccccc23)CC1.Cl.Cl	30

System: Plasma
Assay: Drug uptake in Plasmodium berghei ANKA infected Swiss black mouse plasma at 20 mg/kg, po via gavage measured after 20 hrs
Type: ADME, organism-based
Conditions: in vivo

Structure (SMILES)	Drug uptake
CN1CCN(CCNc2nc(Nc3ccc(F)c(Cl)c3)nc3ccccc23)CC1.Cl.Cl	Active

System: Plasmodium falciparum
Assay: Antimalarial activity against Plasmodium falciparum NF54 harboring pfs16-LUC-GFP ring stage gametocytes after 24 hrs by MitoTracker Red staining based confocal microscopy
Type: functional
Conditions: NF54, 24 h

Structure (SMILES)	EC50 [nM]
CN1CCN(CCNc2nc(Nc3ccc(F)c(Cl)c3)nc3ccccc23)CC1.Cl.Cl	179

System: not listed separately
Assay: Selectivity index, ratio of EC50 for human HepG2 cells to EC50 for Plasmodium falciparum 3D7 asexual blood stage infected in human erythrocytes
Type: toxicity, cell-based
Conditions: read-out: Ratio EC50

Structure (SMILES)	selectivity ratio
CN1CCN(CCNc2nc(Nc3ccc(F)c(Cl)c3)nc3ccccc23)CC1.Cl.Cl	240

System: Plasma
Assay: Drug uptake in Plasmodium berghei ANKA infected Swiss black mouse plasma at 20 mg/kg, ip measured after 20 hrs
Type: ADME, organism-based
Conditions: in vivo

Structure (SMILES)	Drug uptake
CN1CCN(CCNc2nc(Nc3ccc(F)c(Cl)c3)nc3ccccc23)CC1.Cl.Cl	Active

System: Plasmodium falciparum
Assay: Antimalarial activity against chloroquine and mefloquine resistant Plasmodium falciparum W2mef infected in human erythrocytes incubated for 72 hrs by LDH assay
Type: functional, cell-based
Conditions: not given

Structure (SMILES)	EC50 [nM]
CN1CCN(CCNc2nc(Nc3ccc(F)c(Cl)c3)nc3ccccc23)CC1.Cl.Cl	49

System: Plasmodium berghei
Assay: Antimalarial activity against Plasmodium berghei ANKA infected Swiss black mouse model at 20 mg/kg administered via oral gavage for 4 days starting 4 hrs post infection by microscopic method
Type: functional
Conditions: not given

Structure (SMILES)	Activity [%]
CN1CCN(CCNc2nc(Nc3ccc(F)c(Cl)c3)nc3ccccc23)CC1.Cl.Cl	>90

System: Plasmodium falciparum
Assay: Antimalarial activity against synchronous culture of Plasmodium falciparum 3D7 ring stage parasite infected in human erythrocytes incubated for 3 hrs followed by compound wash out and measured after 24 hrs by NanoGlo-reagent based bioluminescence assay
Type: functional, cell-based
Conditions: not given

Structure (SMILES)	EC50 [nM]
CN1CCN(CCNc2nc(Nc3ccc(F)c(Cl)c3)nc3ccccc23)CC1.Cl.Cl	2500

System: not listed separately
Assay: Hepatic extraction ratio in human liver microsomes at 1 uM in presence of NADPH by LC-MS method
Type: ADME, microsome
Conditions: read-out: ERH

Structure (SMILES)	hepatic extraction ratio at 1 µM
CN1CCN(CCNc2nc(Nc3ccc(F)c(Cl)c3)nc3ccccc23)CC1.Cl.Cl	< 0.22

System: not listed separately
Assay: Ratio of EC50 for Plasmodium falciparum NF54-pfs16-LUC-GFP early stage gametocytes to EC50 for Plasmodium falciparum 3D7 asexual blood stage infected in human erythrocytes
Type: functional
Conditions: not given

Structure (SMILES)	Ratio EC50
CN1CCN(CCNc2nc(Nc3ccc(F)c(Cl)c3)nc3ccccc23)CC1.Cl.Cl	15 - 25

System: not listed separately
Assay: Aqueous solubility of the compound at pH 6.5 by nephelometry
Type: physicochemical
Conditions: not given

Structure (SMILES)	solubility kinetic [µM]
CN1CCN(CCNc2nc(Nc3ccc(F)c(Cl)c3)nc3ccccc23)CC1.Cl.Cl	11.3 to 23

System: not listed separately
Assay: Half life in human liver microsomes at 1 uM in presence of NADPH by LC-MS method
Type: ADME, microsome
Conditions: not given

Structure (SMILES)	half-life at 1 µM [min]
CN1CCN(CCNc2nc(Nc3ccc(F)c(Cl)c3)nc3ccccc23)CC1.Cl.Cl	> 255

System: HepG2
Assay: Cytotoxicity against human HepG2 cells assessed as growth inhibition after 48 hrs by Cell Titer-Glo assay
Type: cell-based
Conditions: HepG2, 48 h

Structure (SMILES)	EC50 [nM]
CN1CCN(CCNc2nc(Nc3ccc(F)c(Cl)c3)nc3ccccc23)CC1.Cl.Cl	6100

System: Plasmodium falciparum
Assay: Antimalarial activity against Plasmodium falciparum NF54 harboring pfs16-LUC-GFP early stage 1 to 3 gametocytes after 48 hrs by MitoTracker Red staining based confocal microscopy
Type: functional
Conditions: NF54, 48 h

Structure (SMILES)	EC50 [nM]
CN1CCN(CCNc2nc(Nc3ccc(F)c(Cl)c3)nc3ccccc23)CC1.Cl.Cl	326

System: Plasmodium falciparum
Assay: Antimalarial activity against synchronous culture of Plasmodium falciparum 3D7 ring stage parasite infected in human erythrocytes incubated for 24 hrs followed by compound wash out and measured after 24 hrs by NanoGlo-reagent based bioluminescence assay
Type: functional, cell-based
Conditions: 3D7, 24 h

Structure (SMILES)	EC50 [nM]
CN1CCN(CCNc2nc(Nc3ccc(F)c(Cl)c3)nc3ccccc23)CC1.Cl.Cl	323

System: Plasmodium falciparum
Assay: Antimalarial activity against synchronous culture of Plasmodium falciparum 3D7 ring stage parasite infected in human erythrocytes incubated for 6 hrs followed by compound wash out and measured after 24 hrs by NanoGlo-reagent based bioluminescence assay
Type: functional, cell-based
Conditions: not given

Structure (SMILES)	Activity	EC50 [nM]
CN1CCN(CCNc2nc(Nc3ccc(F)c(Cl)c3)nc3ccccc23)CC1.Cl.Cl	Dose dependent effect	2960

System: Plasmodium berghei
Assay: Antimalarial activity against Plasmodium berghei ANKA infected Swiss black mouse at 20 mg/kg, ip administered for 4 days starting 4 hrs post infection by microscopic method
Type: functional
Conditions: not given

Structure (SMILES)	Activity [%]
CN1CCN(CCNc2nc(Nc3ccc(F)c(Cl)c3)nc3ccccc23)CC1.Cl.Cl	>98

System: not listed separately
Assay: Aqueous solubility of the compound at pH 2 by nephelometry
Type: physicochemical
Conditions: not given

Structure (SMILES)	solubility kinetic [µM]
CN1CCN(CCNc2nc(Nc3ccc(F)c(Cl)c3)nc3ccccc23)CC1.Cl.Cl	> 90

System: not listed separately
Assay: Intrinsic clearance in mouse liver microsomes at 1 uM in presence of NADPH by LC-MS method
Type: ADME, microsome
Conditions: read-out: CLH

Structure (SMILES)	microsomal CLint at 1 µM [µL/min/mg]
CN1CCN(CCNc2nc(Nc3ccc(F)c(Cl)c3)nc3ccccc23)CC1.Cl.Cl	57

System: Liver
Assay: Drug metabolism in human liver microsomes assessed as hydro defluorination at 1 uM after 60 mins in presence of NADPH by LC-MS method
Type: ADME, microsome
Conditions: 1 h

Structure (SMILES)	Drug metabolism
CN1CCN(CCNc2nc(Nc3ccc(F)c(Cl)c3)nc3ccccc23)CC1.Cl.Cl	Metabolite_Detected
